One assay addresses T1, rat GPR55 (Rattus norvegicus, UniProt F1MAK4).
T1 construct: expressed in transfected cells; host or cells: HEK293 (human embryonic kidney) cells
T1 sequence (F1MAK4 1-319): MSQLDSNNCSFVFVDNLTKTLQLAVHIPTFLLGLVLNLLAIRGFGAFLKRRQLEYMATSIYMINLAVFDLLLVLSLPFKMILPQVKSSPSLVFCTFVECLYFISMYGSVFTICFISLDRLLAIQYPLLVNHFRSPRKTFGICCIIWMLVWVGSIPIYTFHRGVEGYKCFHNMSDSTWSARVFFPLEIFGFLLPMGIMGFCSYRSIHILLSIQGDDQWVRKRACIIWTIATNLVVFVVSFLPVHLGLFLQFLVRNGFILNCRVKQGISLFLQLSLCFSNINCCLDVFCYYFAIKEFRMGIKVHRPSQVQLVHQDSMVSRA
In words: Ca2+ mobilization assay (FLIPR, Calcium5 dye), rat GPR55. The class given is cell-based. Conditions: HEK293 cells co-expressing PK-tagged rat GPR55 and EA-tagged beta-arrestin; intracellular calcium increase. How it is done: (§1) This cell-based assay measures the ability of compounds to activate the GPR55 receptor by measuring changes in intracellular calcium levels. HEK293 (human embryonic kidney) cells co-expressing recombinant ProLink (PK) tagged human or rat GPR55 and Enzyme Acceptor (EA) tagged beta-arrestin were seeded into PDL-coated, black-walled clear-bottom 384 well plates in assay buffer (25 mM HEPES, HBSS, 1 mM Probenicid, 0.1% BSA, pH 7.4) containing Calcium5 dye (Molecular Devices). Cells were incubated in suspension with the Calcium5 dye for 1 hour at 37° C., 5% CO2. Dilution series of the compounds in assay buffer were added to the cells in duplicate wells and compound-mediated real-time increases in intracellular calcium concentration were recorded as increased fluorescence using the Molecular Devices FLIPR instrument. Kinetic traces were reduced to a numerical value by subtracting the minimum response from the maximum response.

The target of another assay is T2, human GPR55 (Homo sapiens, UniProt Q9Y2T6).
T2 construct: expressed in transfected cells; host or cells: HEK293 (human embryonic kidney) cells
Kind of assay: Ca2+ mobilization assay (FLIPR, Calcium5 dye), human GPR55. The class given is cell-based. Conditions: HEK293 cells co-expressing PK-tagged human GPR55 and EA-tagged beta-arrestin; intracellular calcium increase. As for the experimental part:
as §1

Structures are written as SMILES. pEC50: −log10 of the molar value. Some results are limits rather than exact numbers.

T2 sequence (Q9Y2T6 whole entry): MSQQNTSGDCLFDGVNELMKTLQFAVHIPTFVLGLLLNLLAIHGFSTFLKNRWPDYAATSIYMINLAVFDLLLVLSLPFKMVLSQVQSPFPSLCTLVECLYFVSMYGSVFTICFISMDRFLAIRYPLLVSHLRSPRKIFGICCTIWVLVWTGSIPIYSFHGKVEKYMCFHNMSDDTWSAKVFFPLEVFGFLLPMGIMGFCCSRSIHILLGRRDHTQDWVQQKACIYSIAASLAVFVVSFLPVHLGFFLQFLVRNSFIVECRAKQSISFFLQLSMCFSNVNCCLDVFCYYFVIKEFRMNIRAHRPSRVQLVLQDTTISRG

In general, pEC50 refers to the EC50 on a negative log10 scale, so that one unit is a factor of ten. Take `C[C@@H](Nc1cnc(-c2cncc(OC(F)(F)F)c2)cn1)c1ccc(F)cc1` [Example 43, (R)-N-(1-(4-fluorophenyl)ethyl)-5-(5-(trifluoromethoxy)pyridin-3-yl)pyrazin-2-amine]: the pEC50 on rat GPR55 was ≥ 5.30; at human GPR55, ≥ 7.30.

Consider `C=Cc1cncc(-c2cnc(N[C@H](C)c3ccc(F)cc3)cn2)c1` [Example 33, (R)-N-(1-(4-fluorophenyl)ethyl)-5-(5-vinylpyridin-3-yl)pyrazin-2-amine], for which the pEC50 on rat GPR55 is ≥ 6.00; on human GPR55, ≥ 7.30.

Consider `CCc1cncc(-c2ccc(N[C@H](C)c3ccccc3F)nc2)c1` [Example 19, (R)-5′-ethyl-N-(1-(2-fluorophenyl)ethyl)-[3,3′-bipyridin]-6-amine], for which the pEC50 on rat GPR55 and at human GPR55 was ≥ 6.00 throughout.

With `C[C@@H](Nc1ccc(-c2ccc3c(c2)N(C)C(=O)C3(F)F)cn1)c1ccc(F)cc1` [Example 79, (R)-3,3-difluoro-6-(6-((1-(4-fluorophenyl)ethyl)amino)pyridin-3-yl)-1-methylindolin-2-one], the pEC50 on rat GPR55 and at human GPR55 was ≥ 5.30 each time.

As to `C[C@@H](Nc1ncc(-c2ccc3ncn(C)c3c2)nn1)c1ccc(F)cc1` [Example 81, (R)-N-(1-(4-fluorophenyl)ethyl)-6-(1-methyl-1H-benzo[d]imidazol-6-yl)-1,2,4-triazin-3-amine], the pEC50 at rat GPR55 was ≥ 5.30; on human GPR55, ≥ 6.00.

As for `C#Cc1cncc(-c2ccc(N[C@H](C)c3ccc(F)cc3)nc2)c1` [Example 51, (R)-5′-ethynyl-N-(1-(4-fluorophenyl)ethyl)-[3,3′-bipyridin]-6-amine], the pEC50 at rat GPR55 is ≥ 6.00; at human GPR55, ≥ 7.30.

As to `CC(Nc1cc(F)c(-c2cncc(S(C)(=O)=O)c2)cn1)c1ccc(F)cc1` (single isomer, unassigned) [Example 29b, 4-fluoro-N-(1-(4-fluorophenyl)ethyl)-5′-(methylsulfonyl)-[3,3′-bipyridin]-6-amine], the pEC50 at rat GPR55 is ≥ 5.30; on human GPR55 it was ≥ 6.00.

`Cc1nc(N[C@H](C)c2ccc(F)cc2)ccc1-c1cncc(S(C)(=O)=O)c1` [Example 22, (R)-N-(1-(4-fluorophenyl)ethyl)-2-methyl-5′-(methylsulfonyl)-[3,3′-bipyridin]-6-amine]: the pEC50 at rat GPR55 is ≥ 5.30; on human GPR55 it was ≥ 6.70.

As to `CC[S+]([O-])c1cncc(-c2cnc(N[C@H](C)c3ccc(F)cc3)cn2)c1` (stereo partly drawn) [Example 24, 5-(5-(ethylsulfinyl)pyridin-3-yl)-N-((R)-1-(4-fluorophenyl)ethyl)pyrazin-2-amine], the pEC50 at rat GPR55 was ≥ 5.30; at human GPR55 it was ≥ 6.70.

For the compound `C[C@@H](Nc1ncc(-c2ccc3oc(=O)[nH]c3c2)nn1)c1ccc(F)cc1` [Example 69, (R)-5-(3-((1-(4-fluorophenyl)ethyl)amino)-1,2,4-triazin-6-yl)benzo[d]oxazol-2(3H)-one], the pEC50 on rat GPR55 and at human GPR55 was ≥ 6.00 each time.

`C[C@@H](Nc1cnc(-c2cncc(C=C(F)F)c2)cn1)c1ccc(F)cc1` [Example 34, (R)-5-(5-(2,2-difluorovinyl)pyridin-3-yl)-N-(1-(4-fluorophenyl)ethyl)pyrazin-2-amine]: the negative-log EC50 (pEC50) on rat GPR55 is ≥ 6.00; on human GPR55, ≥ 7.30.

Consider `C=Cc1cncc(-c2ccc(N[C@H](C)c3ccc(F)cc3)nc2)c1` [Example 20, (R)-N-(1-(4-fluorophenyl)ethyl)-5′-vinyl-[3,3′-bipyridin]-6-amine], for which the pEC50 on rat GPR55 and on human GPR55 was ≥ 7.30 throughout.

As to `C[C@@H](Nc1ncc(-c2cnc3c(c2)ncn3C)nn1)c1ccc(F)cc1` [Example 83, (R)-N-(1-(4-fluorophenyl)ethyl)-6-(3-methyl-3H-imidazo[4,5-b]pyridin-6-yl)-1,2,4-triazin-3-amine], the pEC50 at rat GPR55 and on human GPR55 was ≥ 5.30 in each case.

(Values after patent US20250282728A1, “NITROGEN COMPRISING HETEROCYCLIC DERIVATIVES FOR THE TREATMENT OF DISORDERS ASSOCIATED WITH GPR55 RECEPTOR” (Cerevance, Inc., priority 2022, published 2025).)
